How the values were obtained:
[1] = biological target: T1, recombinant rhinovirus 3C protease, serotype 14 (Human rhinovirus 14, UniProt P03303); assay: Inhibition of rhinovirus 3C protease (FRET assay), serotype 14; type: biochemical
T1 construct: Recombinant rhinovirus 3C proteases; made in house
Protocol: (§1) Stock solutions (50 mM, in DMSO) of various compounds were prepared; dilutions were in the same solvent. Recombinant rhinovirus 3C proteases (see Birch et al., “Purification of recombinant human rhinovirus 14 3C protease expressed in Escherichia coli,” Protein Expr. Pur. (1995), vol. 6(5), 609-618) from serotypes 14, 16, and 2 were prepared by the following standard chromatographic procedures: (1) ion exchange using Q Sepharose Fast Flow from Pharmacia; (2) affinity chromatography using Affi-Gel Blue from Biorad; and (3) sizing using Sephadex G-100 from Pharmacia. Each assay sample contained 2% DMSO, 50 mM tris pH 7.6, 1 mM EDTA, a test compound at the indicated concentration, approximately 1 μM substrate, and 50-100 nM protease. The kobs/I values were obtained from reactions initiated by addition of enzyme rather than substrate. RVP activity was measured in the fluorescence resonance energy transfer assay. The substrate was (N-terminal) DABCYL-([…]-EDANS. In the uncleaved peptide, the EDANS fluorescence was quenched by the proximal DABCYL moiety. When the peptide was cleaved, the quenching was relieved, and activity was measured as an increase in fluorescence signal. The tabulated data in the column designated kobs/[I] were measured from progress curves in enzyme start experiments.

H1-HeLa cells = assay: Cytotoxicity in mock-infected H1-HeLa cells (antirhinoviral assay, XTT); settings: HRV-89 row
HRV-14 = assay: Antirhinoviral H1-HeLa cell culture assay (XTT), HRV-14; type: cell-based, human rhinovirus; settings: Rhinovirus B, HRV14, HRV-14, H1-HeLa cells
[2] = biological target: T2, rhinovirus 3C protease, HRV-89 (Human rhinovirus A serotype 89, UniProt P07210); assay: Inhibition of rhinovirus 3C protease (FRET assay), serotype 89; type: biochemical, human rhinovirus 89; settings: HRV-89 3C protease
T2 construct: Recombinant rhinovirus 3C proteases
T2 sequence (P07210 1522-1704): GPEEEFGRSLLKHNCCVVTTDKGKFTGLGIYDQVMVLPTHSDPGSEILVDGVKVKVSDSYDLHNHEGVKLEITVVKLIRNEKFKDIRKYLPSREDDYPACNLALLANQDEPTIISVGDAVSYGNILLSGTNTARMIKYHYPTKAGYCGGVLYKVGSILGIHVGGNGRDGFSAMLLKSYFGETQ

HRV-89 = assay: Antirhinoviral H1-HeLa cell culture assay (XTT), HRV-89; type: cell-based, human rhinovirus; settings: Rhinovirus A, HRV89, HRV-89, H1-HeLa cells
Text: (§2) (1989), vol. 81, 577-586.

[3] = biological target: T3, recombinant rhinovirus 3C protease, serotype 16 (Human rhinovirus 16, UniProt Q82122); assay: Inhibition of rhinovirus 3C protease (FRET assay), serotype 16; type: biochemical; settings: HRV-16 3C protease
T3 construct: Recombinant rhinovirus 3C proteases; made in house
T3 sequence (Q82122 1511-1693): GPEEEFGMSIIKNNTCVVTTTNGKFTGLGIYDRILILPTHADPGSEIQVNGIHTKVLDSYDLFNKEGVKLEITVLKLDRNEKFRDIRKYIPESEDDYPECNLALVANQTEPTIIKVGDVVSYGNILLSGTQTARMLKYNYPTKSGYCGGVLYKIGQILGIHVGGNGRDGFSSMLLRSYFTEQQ
Protocol: as §1

in vitro = settings: human, mock-infected H1-HeLa cells
[4] = biological target: T4, recombinant rhinovirus 3C protease, serotype 2 (Human rhinovirus 2, UniProt P04936); assay: Inhibition of rhinovirus 3C protease (FRET assay), serotype 2; type: biochemical; settings: HRV-2 3C protease
T4 construct: Recombinant rhinovirus 3C proteases; made in house
T4 sequence (P04936 1508-1690): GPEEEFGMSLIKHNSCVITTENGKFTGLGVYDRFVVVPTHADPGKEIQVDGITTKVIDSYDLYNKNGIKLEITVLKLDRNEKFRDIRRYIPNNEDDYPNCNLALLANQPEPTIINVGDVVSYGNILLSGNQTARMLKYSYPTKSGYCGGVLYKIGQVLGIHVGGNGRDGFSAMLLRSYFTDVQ
Protocol: as §1

CVB3 = assay: Anticoxsackieviral cell culture assay (XTT), CVB3; type: cell-based, coxsackievirus B3; settings: Enterovirus B, 24 h; CVB3, H1-HeLa cells, m.o.i. 0.075, one day
ECHO 11 = assay: Anti-echoviral cell culture assay (XTT), ECHO 11 in MRC-5 cells; type: cell-based, echovirus 11; settings: Enterovirus B, MRC5, 96 h; ECHO-11, MRC-5 cells, four days
Protocol: (§3) Echovirus type 11 (ECHO 11) was purchased from ATCC (Rockville, Md.). Virus stocks were propagated and antiviral assays were performed in MRC-5 cells (ATCC).

HRV-1A = assay: Antirhinoviral H1-HeLa cell culture assay (XTT), HRV-1A; type: cell-based, human rhinovirus; settings: Rhinovirus A, HRV1A, H1-HeLa cells
Text: as §2

HRV-10 = assay: Antirhinoviral H1-HeLa cell culture assay (XTT), HRV-10; type: cell-based; settings: Human rhinovirus sp., HRV10, HRV-10, H1-HeLa cells
Text: as §2

[5] = Cytotoxicity in uninfected H1-HeLa cells (anticoxsackieviral assay, XTT); type: cell-based; settings: human
[6] = Cytotoxicity in uninfected MRC-5 cells (anti-echoviral assay, XTT); type: cell-based; settings: human, ECHO-11 row
Protocol: as §3

CAV-21 = assay: Anticoxsackieviral cell culture assay (XTT), CAV-21; type: cell-based, coxsackievirus A21; settings: Enterovirus C, 48 h; CAV-21, H1-HeLa cells, m.o.i. 0.025, two days

T1 sequence (P03303 1538-1719): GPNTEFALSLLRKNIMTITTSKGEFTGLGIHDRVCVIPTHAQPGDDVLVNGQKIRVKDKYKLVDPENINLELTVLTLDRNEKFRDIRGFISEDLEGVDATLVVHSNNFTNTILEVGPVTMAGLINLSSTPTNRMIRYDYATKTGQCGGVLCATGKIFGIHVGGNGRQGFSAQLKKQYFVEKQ

Compound	Ki [1]	CC50 (H1-HeLa cells)	EC50 (HRV-14)	Ki [2]	EC50 (HRV-89)	Ki [3]	CC50 at 2 days (in vitro)	Ki [4]	EC50 (CVB3)	EC50 (ECHO 11)	EC50 (HRV-1A)	EC50 (HRV-10)	CC50 at 2 days ([5]; CAV-21)	CC50 at 1 day ([5]; CVB3)	CC50 at 4 days [6]	EC50 (CAV-21)
C#CC(=O)[C@H](CNC(C)=O)NC(=O)[C@H](Cc1ccccc1)NC(=O)[C@H](CC(C)C)NC(=O)OCc1ccccc1 [Compound 14, Cbz-L-Leu-L-Phe-L-(N-Ac-amino-Ala)-C≡CH]	65 nM	> 100000 nM	> 100000 nM	760 nM	> 100000 nM	322 nM	> 100000 nM	124 nM								
Cc1cc(C(=O)N[C@H](C(=O)N[C@@H](Cc2ccc(F)cc2)C(=O)N[C@@H](C[C@@H]2CCNC2=O)C(=O)c2nc3ccccc3s2)C(C)C)no1 [Compound 28, (5-Methylisoxazole-3-carboxyl)-L-Val-L-Phe(4-F)-L-[(S)-Pyrrol-Ala]-2-Benzthiazole]	4.5 nM		335 nM				251000 nM		5790 nM	821 nM	337 nM	253 nM	251000 nM	251000 nM	251000 nM	4670 nM
